The results in this text go back to ChEMBL document CHEMBL1133572, “Protease inhibitors: current status and future prospects” (J Med Chem, 2000).

SMILES strings stand for the structures. Structures can show the parent of a compound that is named as a salt. Residues, ends and D or L forms follow the SMILES beside them. *: point of attachment. Cbz = O=C(OCc1ccccc1)* Bounds are passed on as bounds.

A short description of series [1]: oral bioavailability in standard iv / po dogs. The class given is ADME, organism-based, Canis lupus familiaris. As to conditions: dog, in vivo, read-out: Bioavailabiility.
Series [2] has as its target T1, Caspase-1 (Homo sapiens, UniProt P29466).
T1 sequence (P29466 whole entry): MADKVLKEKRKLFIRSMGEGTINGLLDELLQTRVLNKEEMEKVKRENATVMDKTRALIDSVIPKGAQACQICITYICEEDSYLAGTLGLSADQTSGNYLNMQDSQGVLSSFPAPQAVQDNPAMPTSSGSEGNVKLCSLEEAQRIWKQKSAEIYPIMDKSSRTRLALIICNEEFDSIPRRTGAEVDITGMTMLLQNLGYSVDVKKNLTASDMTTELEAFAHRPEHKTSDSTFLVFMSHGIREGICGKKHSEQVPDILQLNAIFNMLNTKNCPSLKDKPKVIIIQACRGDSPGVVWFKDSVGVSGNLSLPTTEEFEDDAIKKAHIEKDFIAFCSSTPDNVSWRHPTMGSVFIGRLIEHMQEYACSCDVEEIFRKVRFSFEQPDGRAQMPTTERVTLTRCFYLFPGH
As to the kind of experiment: The binding affinity against IL-1 beta converting enzyme.

Series [3] can be described thus: The effective dose required for 50% inhibition of elastase. The class given is functional.
The nature of series [4]: Inhibitory concentration against Aspartic proteases.
In series [5] the target is Cathepsin D (Homo sapiens, UniProt P07339). In words: Inhibitory concentration against Human cathepsin D.
In series [6] the target is Neutrophil elastase (Homo sapiens, UniProt P08246).
A short description of series [7]: cytotoxicity against HIV protease enzyme. As to conditions: human immunodeficiency virus, in vivo. The class given is organism-based.
Series [8] in a line: Cmax value at the period of 0-24 h after dosing. As to conditions: in vivo. The class given is ADME, organism-based.
A short description of series [9]: Bioavailability in rat. The following applies: in vivo. The class given is ADME, organism-based.
Series [10] is described as follows: Plasma half life of the compound. The class given is ADME, cell-free.
Series [11] concerns Human immunodeficiency virus 1. In words: (§1) Antiviral activity against HIV-1 protease. The class given is functional, organism-based.
For series [12], the system named is Human immunodeficiency virus. Described as §1. As to conditions: Human immunodeficiency virus 1. The class given is functional, organism-based.
For series [13], the target named is HIV-1 protease (Human immunodeficiency virus 1). As to the kind of experiment: Binding affinity against HIV-1 protease.
Series [14] concerns the target T2, Human rhinovirus A protease (Human rhinovirus sp.) (UniProt Q4U254).
T2 sequence (whole entry): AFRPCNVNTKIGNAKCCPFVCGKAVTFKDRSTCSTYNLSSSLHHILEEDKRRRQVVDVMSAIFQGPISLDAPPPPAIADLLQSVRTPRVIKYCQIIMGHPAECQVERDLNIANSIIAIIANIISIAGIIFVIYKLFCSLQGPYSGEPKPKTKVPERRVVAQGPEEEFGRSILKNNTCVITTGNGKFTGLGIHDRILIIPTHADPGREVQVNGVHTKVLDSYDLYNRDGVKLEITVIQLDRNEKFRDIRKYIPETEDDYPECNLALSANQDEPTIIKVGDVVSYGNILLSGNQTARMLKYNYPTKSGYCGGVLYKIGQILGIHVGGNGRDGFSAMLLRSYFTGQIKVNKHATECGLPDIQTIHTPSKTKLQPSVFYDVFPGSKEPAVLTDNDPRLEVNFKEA
In words: The toxic concentration against Protease 3C.

The target of series [15] is T3, Human rhinovirus A protease (Human rhinovirus sp., UniProt Q4U254).
T3 sequence (Q4U254 whole entry): T2 sequence (whole entry)

In series [16] the target is T3, Human rhinovirus A protease. The source holds these as a separate data set.
Series [17] concerns the target Complement C1r subcomponent (Homo sapiens, UniProt P00736). In words: Binding affinity against factor C1r.
In series [18] the target is Kallikrein-1 (Homo sapiens, UniProt P06870). In words: Binding affinity against pancreatic kallikrein.
Series [19] has as its target Plasma kallikrein (Homo sapiens, UniProt P03952). In words: Binding affinity against plasma kallikrein. The class given is cell-free.
Series [20] has as its target T4, Serine protease 1 (Homo sapiens, UniProt P07477). As to the kind of experiment: Binding affinity against trypsin.
Series [21] is described as follows: Inhibitory activity against complement mediated hemoyses in alternate pathway. The class given is functional.
Series [22] has as its target Prothrombin (Homo sapiens, UniProt P00734). In words: Binding affinity against plasma thrombin. The class given is cell-free.
Series [23] is described as follows: Inhibitory activity against complement mediated hemoyses in classical pathway. The class given is functional.
Series [24] has as its target Coagulation factor X (Homo sapiens, UniProt P00742).
The target in series [25] is T2, Human rhinovirus A protease (Human rhinovirus sp.).
A short description of series [26]: Binding affinity against Thrombin.
Series [27] has as its target Neutrophil elastase (Homo sapiens) (UniProt P08246).
The species entered for series [28] is Mus musculus. In words: Inhibitory concentration against mice. The class given is functional.
For series [29], the system named is Oryctolagus cuniculus. As to the kind of experiment: Inhibition of thrombosis in rabbits ( ED50 (iv). The class given is functional.
The test system of series [30] is Oryctolagus cuniculus. As to the kind of experiment: Inhibition of thrombosis in rabbits ( ED50 (po). The class given is functional.
For series [31], the system named is Oryctolagus cuniculus. In words: Inhibition of thrombosis in rabbits ( ED50 (sc). The class given is functional.
Series [32] addresses T4, Serine protease 1.
The target of series [33] is Cathepsin B (Homo sapiens, UniProt P07858). As to conditions: read-out: Ki app.
In series [34] the target is Cathepsin S (Homo sapiens, UniProt P25774). As to the kind of experiment: The apparent binding affinity against cathepsin S. As to conditions: read-out: Ki app.
The target of series [35] is Procathepsin L (Homo sapiens, UniProt P07711).
Sequence of Procathepsin L (P07711 whole entry): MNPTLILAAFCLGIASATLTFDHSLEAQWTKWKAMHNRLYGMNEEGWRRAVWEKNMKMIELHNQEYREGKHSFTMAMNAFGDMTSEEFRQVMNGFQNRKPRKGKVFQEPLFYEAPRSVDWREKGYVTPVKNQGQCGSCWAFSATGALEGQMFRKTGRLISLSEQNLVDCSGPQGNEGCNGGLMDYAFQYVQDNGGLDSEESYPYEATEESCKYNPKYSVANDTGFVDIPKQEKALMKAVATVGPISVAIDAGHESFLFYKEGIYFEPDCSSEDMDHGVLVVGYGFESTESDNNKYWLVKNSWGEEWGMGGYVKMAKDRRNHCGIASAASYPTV

T4 sequence (P07477 whole entry): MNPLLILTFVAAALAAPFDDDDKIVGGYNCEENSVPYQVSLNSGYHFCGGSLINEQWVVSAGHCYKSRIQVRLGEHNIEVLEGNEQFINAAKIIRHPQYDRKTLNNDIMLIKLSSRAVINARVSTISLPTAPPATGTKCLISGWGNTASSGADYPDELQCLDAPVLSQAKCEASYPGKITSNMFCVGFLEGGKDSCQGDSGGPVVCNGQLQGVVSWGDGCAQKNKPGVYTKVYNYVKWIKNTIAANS
Sequence of Complement C1r subcomponent (P00736 18-463 limits assumed): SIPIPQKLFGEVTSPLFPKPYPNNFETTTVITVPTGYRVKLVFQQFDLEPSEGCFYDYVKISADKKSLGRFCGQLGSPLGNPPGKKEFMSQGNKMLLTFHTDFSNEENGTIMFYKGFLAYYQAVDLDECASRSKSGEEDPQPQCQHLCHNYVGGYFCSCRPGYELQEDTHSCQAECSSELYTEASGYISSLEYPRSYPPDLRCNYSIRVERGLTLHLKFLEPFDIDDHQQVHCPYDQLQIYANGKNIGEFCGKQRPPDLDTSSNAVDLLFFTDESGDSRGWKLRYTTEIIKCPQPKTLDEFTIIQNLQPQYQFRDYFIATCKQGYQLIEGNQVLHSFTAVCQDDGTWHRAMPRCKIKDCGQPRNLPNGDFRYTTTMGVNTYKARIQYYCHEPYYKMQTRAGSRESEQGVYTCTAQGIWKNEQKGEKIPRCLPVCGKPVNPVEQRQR
Sequence of Complement C1r subcomponent (P00736 464-705 limits assumed): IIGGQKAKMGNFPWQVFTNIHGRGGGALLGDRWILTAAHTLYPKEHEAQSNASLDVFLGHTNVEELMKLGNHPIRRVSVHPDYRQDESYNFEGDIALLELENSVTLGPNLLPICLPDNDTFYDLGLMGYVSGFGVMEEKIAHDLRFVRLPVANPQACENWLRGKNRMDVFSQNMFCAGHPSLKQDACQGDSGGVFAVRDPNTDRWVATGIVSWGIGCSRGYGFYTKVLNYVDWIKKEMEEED
Sequence of Coagulation factor X (P00742 41-179 limits assumed): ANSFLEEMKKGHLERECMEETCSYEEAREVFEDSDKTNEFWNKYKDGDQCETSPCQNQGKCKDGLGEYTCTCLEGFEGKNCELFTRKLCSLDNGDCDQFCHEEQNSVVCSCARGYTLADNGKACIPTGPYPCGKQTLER
Sequence of Coagulation factor X (P00742 235-488 limits assumed): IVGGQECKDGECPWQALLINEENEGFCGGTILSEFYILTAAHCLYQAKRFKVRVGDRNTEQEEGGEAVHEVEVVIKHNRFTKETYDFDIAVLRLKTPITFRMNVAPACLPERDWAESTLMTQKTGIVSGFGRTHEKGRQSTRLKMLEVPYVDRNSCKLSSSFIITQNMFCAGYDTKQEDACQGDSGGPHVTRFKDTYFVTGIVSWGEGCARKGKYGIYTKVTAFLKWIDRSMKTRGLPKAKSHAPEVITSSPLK
Sequence of Neutrophil elastase (Homo sapiens) (P08246 whole entry): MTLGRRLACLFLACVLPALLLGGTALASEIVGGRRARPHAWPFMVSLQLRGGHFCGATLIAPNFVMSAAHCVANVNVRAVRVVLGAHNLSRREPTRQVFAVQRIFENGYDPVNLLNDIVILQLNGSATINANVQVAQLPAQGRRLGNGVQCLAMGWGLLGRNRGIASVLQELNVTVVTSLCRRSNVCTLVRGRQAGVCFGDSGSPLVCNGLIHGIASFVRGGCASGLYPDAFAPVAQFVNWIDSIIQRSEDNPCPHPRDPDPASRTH
Sequence of Neutrophil elastase (P08246 whole entry): as above
Sequence of Cathepsin S (P25774 whole entry): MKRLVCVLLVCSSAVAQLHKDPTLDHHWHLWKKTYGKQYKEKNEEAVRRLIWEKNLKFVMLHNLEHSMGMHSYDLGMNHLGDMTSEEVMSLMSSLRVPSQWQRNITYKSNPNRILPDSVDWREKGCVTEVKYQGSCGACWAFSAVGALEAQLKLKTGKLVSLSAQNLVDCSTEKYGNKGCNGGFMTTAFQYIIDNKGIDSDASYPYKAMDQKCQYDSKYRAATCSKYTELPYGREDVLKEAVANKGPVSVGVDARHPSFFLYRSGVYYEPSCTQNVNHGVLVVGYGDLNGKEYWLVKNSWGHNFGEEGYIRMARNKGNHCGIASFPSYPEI
Sequence of Kallikrein-1 (P06870 whole entry): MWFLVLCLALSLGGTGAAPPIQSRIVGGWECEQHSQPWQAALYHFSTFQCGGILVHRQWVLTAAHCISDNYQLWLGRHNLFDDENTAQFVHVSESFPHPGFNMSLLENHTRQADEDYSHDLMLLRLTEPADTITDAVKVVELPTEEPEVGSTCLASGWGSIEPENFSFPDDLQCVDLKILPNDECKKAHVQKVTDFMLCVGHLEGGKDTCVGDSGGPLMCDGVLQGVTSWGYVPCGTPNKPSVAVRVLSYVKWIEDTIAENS
Sequence of Cathepsin D (P07339 65-162 limits assumed): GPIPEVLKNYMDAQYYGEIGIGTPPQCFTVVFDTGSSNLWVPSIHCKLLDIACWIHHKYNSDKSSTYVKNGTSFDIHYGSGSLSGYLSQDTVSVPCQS
Sequence of Cathepsin D (P07339 169-412 limits assumed): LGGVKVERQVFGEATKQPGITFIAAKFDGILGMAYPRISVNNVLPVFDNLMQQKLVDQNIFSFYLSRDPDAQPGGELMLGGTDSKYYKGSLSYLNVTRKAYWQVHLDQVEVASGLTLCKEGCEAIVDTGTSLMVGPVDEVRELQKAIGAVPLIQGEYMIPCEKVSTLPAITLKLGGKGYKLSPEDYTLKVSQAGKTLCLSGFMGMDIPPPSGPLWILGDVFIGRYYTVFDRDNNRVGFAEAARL
Sequence of Plasma kallikrein (P03952 20-390 limits assumed): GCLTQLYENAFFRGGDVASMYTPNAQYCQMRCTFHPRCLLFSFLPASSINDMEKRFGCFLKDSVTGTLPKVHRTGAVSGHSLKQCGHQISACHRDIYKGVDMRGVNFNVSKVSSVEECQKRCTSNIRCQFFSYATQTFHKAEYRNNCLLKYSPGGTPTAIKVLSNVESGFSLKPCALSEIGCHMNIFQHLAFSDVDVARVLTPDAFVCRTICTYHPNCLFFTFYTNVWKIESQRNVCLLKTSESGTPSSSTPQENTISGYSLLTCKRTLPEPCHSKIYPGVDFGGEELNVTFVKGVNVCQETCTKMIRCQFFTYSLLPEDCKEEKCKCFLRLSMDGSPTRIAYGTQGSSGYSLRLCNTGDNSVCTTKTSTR
Sequence of Plasma kallikrein (P03952 391-638 limits assumed): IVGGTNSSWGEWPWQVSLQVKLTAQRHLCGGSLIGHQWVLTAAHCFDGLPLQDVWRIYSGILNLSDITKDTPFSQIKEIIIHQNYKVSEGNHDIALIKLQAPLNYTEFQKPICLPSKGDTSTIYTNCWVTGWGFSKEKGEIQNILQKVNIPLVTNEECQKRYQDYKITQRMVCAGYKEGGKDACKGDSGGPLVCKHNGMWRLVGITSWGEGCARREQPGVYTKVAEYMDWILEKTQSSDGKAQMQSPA

Turning to `O=C[C@H](CC(=O)O)NC(=O)[C@@H]1CCCN2C(=O)CCC(NC(=O)c3ccccc3)C(=O)N12` (stereo partly specified), in series [1], the bioavailability is 17%. The same compound registered a Ki in series [2] of 5 nM.

Turning to `CO[C@H]1C(=O)N2C(C(=O)N3CCC[C@H]3C(=O)O)=C(COC(C)=O)CS(=O)(=O)[C@H]12`, the ED50 in series [3] amounted to 5 µg animal-1.

On to `CC(C)C[C@H](NC(=O)[C@H](C)NC(=O)C[C@H](O)[C@H](Cc1ccccc1)NC(=O)[C@@H](NC(=O)c1ccccn1)C(C)C)C(N)=O`, for which the results for the 50% inhibitory concentration (IC50) in series [4] and in [5] were 0.56 nM and 21 nM, respectively.

Regarding `CC(SC(=O)c1cccs1)C(=O)NC1CCSC1` (stereo unspecified), in series [6], the Ki worked out at 1380 nM.

`CC(C)[C@H](NC(=O)c1ccc2ccccc2n1)C(=O)N[C@@H](Cc1ccccc1)[C@H](O)CN1CC[C@@H](OCc2ccncc2)C[C@H]1C(=O)NC(C)(C)C`: the CC50 in series [7] was 45000 nM. This compound also registered a Cmax in series [8] of 1.6 uM l-1. The compound further registered a bioavailability in [9] of 37%. Also, in [10], the half-life was 42 min. For the same compound, the EC50 in [11] stood at 28 nM; in series [12] it was 30 nM. In [13], the Ki was determined as 0.031 nM.

For the compound `CC(C)C[C@H](NC(=O)OCc1ccccc1)C(=O)N[C@@H](Cc1ccccc1)C(=O)N[C@H](C=O)CC(=O)N(C)C` (Cbz-Leu-Phe-Asp(NMe2)-aldehyde), the TC50 in series [14] turned out to be 63000 nM. In [15], this compound registered an EC50 of 1300 nM. In series [16], this compound had a Ki of 5 nM.

In the case of `N=C(N)c1ccc2cc(OC(=O)c3ccc(NC4=NCCN4)cc3)ccc2c1` [SEPIMOSTAT MESYLATE], the Ki turned out to be 6400 nM in series [17]; 610 nM in [18]; 570 nM in [19]; 290 nM in [20]; 2500 nM in series [22]; 20400 nM in series [24]. Also, the IC50 was 3500 nM in [21] and 170 nM in series [23].

With `CC(C)C[C@H](NC(=O)OCc1ccccc1)C(=O)N[C@@H](Cc1ccccc1)C(=O)N[C@H](C=O)CCC(N)=O` (Cbz-Leu-Phe-Gln-aldehyde), in series [15], the EC50 was determined as 66000 nM. Moreover, the TC50 in series [25] was 398000 nM.

As to `N=C(N)c1ccc(CNC(=O)[C@@H]2CCN2C(=O)[C@H](NCC(=O)O)C2CCCCC2)cc1`, the Ki in [26] was found to be 2 nM.

On to `CC(C)C(NC(=O)Cn1c(-c2ccccc2)ccc(NS(=O)(=O)c2ccc(C(=O)NS(=O)(=O)c3ccc(Cl)cc3)cc2)c1=O)C(=O)C(F)(F)F` (stereo unspecified), for which the ED50 in series [27] came out at 2 nM animal-1.

For the compound `CC(=N)N1CC[C@H](Oc2ccc([C@H](Cc3ccc4ccc(C(=N)N)cc4c3)C(=O)O)cc2)C1` [DX-9065A], the ED50 amounted to 56 mg/kg in series [28], 0.03 mg/kg in series [29], 50.5 mg/kg in [30] and 0.3 mg/kg in [31]. In [32], the Ki is 620 nM.

Turning to `CC(C)C[C@H](NC(=O)OCc1ccccc1)C(=O)NNC(=O)c1csc([C@H](CC(C)C)NC(=O)OCc2ccccc2)n1`, the results for the Ki in [33], in [34] and in [35] were 5200 nM, over 1000 nM and 700 nM, respectively.
